We go through twelve compounds from patent US20170334899A1, “AMINO-SUBSTITUTED ISOTHIAZOLES” (Bayer Pharma Aktiengesellschaft, priority 2014, published 2017).

What all share (type): cell-based
Assay [1] concerns human cervical tumor cell line HeLa (ATCC CCL-2). As to the kind of experiment: SAC-Formation - Paclitaxel-Induced Assay. The following applies: Homo sapiens, HeLa, 24 h, HeLa cells, paclitaxel 0.05 μM, test range 0.005 μM-20 μM, read-out: IC50 [mol/l] SAC-Formation - Paclitaxel-Induced Assay. An excerpt: (§1) The spindle assembly checkpoint assures the proper segregation of chromosomes during mitosis. Upon entry into mitosis, chromosomes begin to condensate which is accompanied by the phosphorylation of histone H3 on serine 10. Dephosphorylation of histone H3 on serine 10 begins in anaphase and ends at early telophase. Accordingly, phosphorylation of histone H3 on serine 10 can be utilized as a marker of cells in mitosis. Nocodazole is a microtubule destabilizing substance. Paclitaxel is a microtubule stabilizing compound. Thus, nocodazole as well as paclitaxel interfere with microtubule dynamics and mobilize the spindle assembly checkpoint. […] The mitotic breakthrough can be detected by the decrease of cells with phosphorylation of histone H3 on serine 10. This decline is used as a marker to determine the capability of compounds of the present invention to induce a mitotic breakthrough. The typical morphological alteration of nuclei with a prematurely completed mitosis after SAC-inhibition can be monitored via image analysis routines supporting those findings.
(§2) The nocodazole and paclitaxel variations were used to focus on compounds that are capable of inhibiting a SAC induced by both microtubule destabilization as well as microtubule stabilization. When SAC inducing agents and compounds are given simultaneously inhibitors that effectively block the SAC during formation or abrogation are identified. When cells are incubated with a SAC inducing agent and the SAC interfering compound is given after a defined time, inhibitors are identified that effectively block SAC abrogation.
Cultivated cells of the human cervical tumor cell line HeLa (ATCC CCL-2) were plated at a density of 1000 cells/well in a 1536-well microtiter plate in 2 μl PAA
(§3) Ham's F12 Medium supplemented with 1% (v/v) glutamine, 1% (v/v) penicillin, 1% (v/v) streptomycin and 10% (v/v) fetal calf serum. After incubation overnight at 37° C., 10 μl/well paclitaxel at a final concentration of 0.05 μM were added to cells. Test compounds solubilized in dimethyl sulfoxide (DMSO) were added at various concentrations (0 μM, as well as in the range of 0.005 μM -20 μM; the final concentration of the solvent DMSO was 0.5% (v/v)). Cells were incubated for 24 h at 37° C. in the presence of test compounds in combination with paclitaxel. Thereafter, cells were fixed in 4% (v/v) paraformaldehyde in phosphate buffered saline (PBS) at 4° C. overnight then permeabilized in 0.1% (v/v) Triton X™ 100 in PBS at room temperature for 20 min and blocked in 0.5% (v/v) bovine serum albumin (BSA) in PBS at room temperature for 15 min. After washing with PBS, 5 μl/well antibody solution (anti-phospho-histone H3 clone 3H10, FITC; Millipore, Cat#16-222; 1:1000 dilution) was added to cells, which were incubated for 2 h at room temperature. Afterwards, cells were washed with PBS and 5 μl/well solution of HOECHST 33342 dye (5 μg/ml) was added to cells and cells were incubated 15 min at room temperature in the dark. Cells were washed twice with PBS then covered with PBS and stored at 4° C. until analysis. Images were acquired with a PERKIN ELMER OPERA™ High-Content Analysis reader. Images were analyzed with image analysis software MetaXpress™ from Molecular devices utilizing the Mitotic Index application module. In this assay both labels HOECHST 33342 and phosphorylated Histone H3 on serine 10 were measured. HOECHST 33342 labels the DNA and is used to count the cell number. The staining of phosphorylated Histone H3 on serine 10 determines the number of mitotic cells. […] Otherwise cells were arrested at G2/M phase of the cell cycle progression. The raw assay data were further analyzed by four-parametric hill equation using Genedata's Assay Analyzer and Condoseo software.

For the next assay, the system named is HeLa. As to the kind of experiment: Proliferation assay (crystal violet), HeLa. The following applies: Homo sapiens, HeLa, 96 h, HeLa cells; 4 days incubation; crystal violet staining; read-out: IC50 inhibition of proliferation, HeLa. As for the experimental part: Cultivated tumor cells (cells were ordered from ATCC, except HeLa-MaTu and HeLa-MaTu-ADR, which were ordered from EPO-GmbH, Berlin) were plated at a density of 1000 to 5000 cells/well, depending on the growth rate of the respective cell line, in a 96-well multititer plate in 200 μL of their respective growth medium supplemented 10% fetal calf serum. After 24 hours, the cells of one plate (zero-point plate) were stained with crystal violet (see below), while the medium of the other plates was replaced by fresh culture medium (200 μl), to which the test substances were added in various concentrations (0 μM, as well as in the range of 0.001-10 μM; the final concentration of the solvent dimethyl sulfoxide was 0.5%). The cells were incubated for 4 days in the presence of test substances. Cell proliferation was determined by staining the cells with crystal violet: the cells were fixed by adding 20 μl/measuring point of an 11% glutaric aldehyde solution for 15 minutes at room temperature. After three washing cycles of the fixed cells with water, the plates were dried at room temperature. The cells were stained by adding 100 μl/measuring point of a 0.1% crystal violet solution (pH 3.0). After three washing cycles of the stained cells with water, the plates were dried at room temperature. The dye was dissolved by adding 100 μl/measuring point of a 10% acetic acid solution. Absorbtion was determined by photometry at a wavelength of 595 nm. The change of cell number, in percent, was calculated by normalization of the measured values to the aborbtion values of the zero-point plate (=0%) and the absorbtion of the untreated (0 μm) cells (=100%). The IC50 values were determined by means of a 4 parameter fit.

Assay [2] relates to human cervical tumor cell line HeLa (ATCC CCL-2). In words: SAC-Formation - Nocodazole-Induced Assay. Particulars: Homo sapiens, HeLa, 24 h, HeLa cells, nocodazole 0.1 μg/ml together with test compound, decrease of mitotic cells (phospho-histone H3 Ser10).
Source text: as §1, §2
as §3, with “Cultivated cells of the human cervical tumor cell line HeLa (ATCC CCL-2) were plated at a density of 1000 cells/well in a 1536-well microtiter plate in 2 μl PAA Ham's” for “Ham's”, “nocodazole” for “paclitaxel”, “0.1 μg/ml” for “0.05 μM”, “μM-20” for “μM -20”, “nocodazole.” for “paclitaxel.”

For the compound `Cc1nsc(Nc2cnc3ccccc3n2)c1C(=O)Nc1cccc(C(=O)N2CCC(N3CCCCC3)CC2)c1` [Example 61, N-[3-(1,4′-Bipiperidin-1′-ylcarbonyl)phenyl]-3-methyl-5-(quinoxalin-2-ylamino)-1,2-thiazole-4-carboxamide], the IC50 came to 0.28 µM in assay [1], 10 µM with HeLa and 31 nM in assay [2].

For `Cc1nsc(Nc2cnc3ccccc3n2)c1C(=O)Nc1cccc(C(=O)N2CCN(Cc3ccc(F)cc3)CC2)c1` [Example 93, N-(3-{[4-(4-Fluorobenzyl)piperazin-1-yl]carbonyl}phenyl)-3-methyl-5-(quinoxalin-2-ylamino)-1,2-thiazole-4-carboxamide], the IC50 in assay [1] is 2.7 µM; in the assay with HeLa it was 9.9 µM; in assay [2] it was 710 nM.

On to `Cc1nsc(Nc2cnc3ccccc3n2)c1C(=O)Nc1cccc(C(=O)Nc2ccc(N3CCOCC3)cc2)c1` [Example 65, 3-Methyl-N-(3-{[4-(morpholin-4-yl)phenyl]carbamoyl}phenyl)-5-(quinoxalin-2-ylamino)-1,2-thiazole-4-carboxamide], for which the IC50 is 7.4 µM in assay [1], 8.2 µM in the assay with HeLa and 410 nM in assay [2].

For the compound `COC(=O)CN(C)C(=O)c1cccc(NC(=O)c2c(C)nsc2Nc2cnc3ccccc3n2)c1` [Example 76, Methyl N-methyl-N-[3-({[3-methyl-5-(quinoxalin-2-ylamino)-1,2-thiazol-4-yl]carbonyl}amino)benzoyl]-glycinate], the IC50 in assay [1] is 18 µM; in the assay with HeLa, 10 µM; in assay [2] it was 5000 nM.

Turning to `Cc1nsc(Nc2cnc3ccccc3n2)c1C(=O)Nc1cccc(C(=O)NCCN2CCCC2)c1` [Example 72, 3-Methyl-N-(3-{[2-(pyrrolidin-1-yl)ethyl]carbamoyl}phenyl)-5-(quinoxalin-2-ylamino)-1,2-thiazole-4-carboxamide], the results for the IC50 (in assay [1]; in the assay on HeLa; in assay [2]) were 10 µM, 10 µM and 52 nM, respectively.

As for `C#CCNC(=O)c1cccc(NC(=O)c2c(C)nsc2Nc2cnc3ccccc3n2)c1` [Example 73, 3-Methyl-N-[3-(prop-2-yn-1-ylcarbamoyl)phenyl]-5-(quinoxalin-2-ylamino)-1,2-thiazole-4-carboxamide], the IC50 is 5.3 µM in assay [1], 9.4 µM with HeLa and 250 nM in assay [2].

With `CCN(C)C(=O)c1cccc(NC(=O)c2c(C)nsc2Nc2cnc3ccccc3n2)c1` [Example 67, N-{3-[Ethyl(methyl)carbamoyl]phenyl}-3-methyl-5-(quinoxalin-2-ylamino)-1,2-thiazole-4-carboxamide], the figures for the IC50 (in assay [1]; with HeLa; in assay [2]) were 0.67 µM, 10 µM and 16 nM, respectively.

With `Cc1nsc(Nc2cnc3ccccc3n2)c1C(=O)Nc1cccc(C(=O)N(C)CCc2ccncc2)c1` [Example 82, 3-Methyl-N-(3-{methyl[2-(pyridin-4-yl)ethyl]carbamoyl}-phenyl)-5-(quinoxalin-2-ylamino)-1,2-thiazole-4-carboxamide], the IC50 in assay [1] was 14 µM; in the assay with HeLa, 10 µM; in assay [2], 3700 nM.

With `Cc1nsc(Nc2cnc3ccccc3n2)c1C(=O)Nc1cccc(C(=O)N2CCN(CCc3ccccn3)CC2)c1` [Example 94, 3-Methyl-N-[3-({4-[2-(pyridin-2-yl)ethyl]piperazin-1-yl}-carbonyl)phenyl]-5-(quinoxalin-2-ylamino)-1,2-thiazole-4-carboxamide], the IC50 in assay [1] worked out at 8.4 µM; with HeLa, 10 µM; in assay [2], 940 nM.

For the compound `Cc1nsc(Nc2cnc3ccccc3n2)c1C(=O)Nc1cccc(C(=O)NCCCN2CCOCC2)c1` [Example 95, 3-Methyl-N-(3-{[3-(morpholin-4-yl)propyl]carbamoyl}-phenyl)-5-(quinoxalin-2-ylamino)-1,2-thiazole-4-carboxamide], the IC50 in assay [1] amounted to 10 µM; in the assay with HeLa, 10 µM; in assay [2] it was 68 nM.

Regarding `COc1cc(NC(=O)c2cccc(NC(=O)c3c(C)nsc3Nc3cnc4ccccc4n3)c2)cc(OC)c1OC` [Example 77, 3-Methyl-5-(quinoxalin-2-ylamino)-N-{3-[(3,4,5-trimethoxy-phenyl)carbamoyl]phenyl}-1,2-thiazole-4-carboxamide], the values for the IC50 (in assay [1]; in the assay on HeLa; in assay [2]) were 10 µM, 10 µM and 2200 nM, respectively.

For the compound `Cc1nsc(Nc2cnc3ccccc3n2)c1C(=O)Nc1cccc(C(=O)N(C)CCO)c1` [Example 59, N-{3-[(2-hydroxyethyl)(methyl)carbamoyl]phenyl}-3-methyl-5-(quinoxalin-2-ylamino)-1,2-thiazole-4-carboxamide], the IC50 in assay [1] was 20 µM; in the assay with HeLa it was 10 µM; in assay [2], 3400 nM.
